Source: patent US10800792B2, “Inhibitors of Bruton's tyrosine kinase and method of their use” (JANSSEN PHARMACEUTICA NV, priority 2015, dated 2020)

Biological target: unphosphorylated-BTK kinase domain (UP-BTK), GST-tagged human BTK (389-659aa) (Homo sapiens (Human), UniProt Q06187)
Assay: BTK kinase Lanthascreen binding assay
Conditions: 60 minutes incubation, pIC50 = negative log of the IC50 in molar
How it was run: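 Values are pIC50, i.e. negative log of IC50 in molar, derived from concentration–response fitting. Each compound competes with a fluorescently labelled tracer for the unphosphorylated kinase domain.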

[1] = Lanthascreen tracer competition
[2] = unphosphorylated-BTK kinase domain, 50 nM Tracer 236

Chain of unphosphorylated-BTK kinase domain (UP-BTK), GST-tagged human BTK (389-659aa) (Q06187 389-659): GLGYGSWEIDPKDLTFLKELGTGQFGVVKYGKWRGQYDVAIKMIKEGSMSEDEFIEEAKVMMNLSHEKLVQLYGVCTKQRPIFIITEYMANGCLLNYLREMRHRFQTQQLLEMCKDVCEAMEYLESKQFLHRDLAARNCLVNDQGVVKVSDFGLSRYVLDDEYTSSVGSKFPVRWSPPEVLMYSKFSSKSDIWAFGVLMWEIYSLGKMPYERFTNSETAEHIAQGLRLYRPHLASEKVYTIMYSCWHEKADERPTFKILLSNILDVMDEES

Row | SMILES | BTK_I_binding pIC50 [1] | BTK_I_binding pIC50 [2]
1 | Cc1cc(Oc2ccccc2)ccc1N1C(=O)Nc2c(C(=O)N[C@@H]3CCCN(C(=O)/C=C/CN4CCCCC4)C3)sc3nccc1c23 [Example 900, (R,E)-5-(2-Methyl-4-phenoxyphenyl)-4-oxo-N-(1-(4-(piperidin-1-yl)but-2-enoyl)piperidin-3-yl)-4,5-dihydro-3H-1-thia-3,5,8-triazaacenaphthylene-2-carboxamide] | 6.8 | –
2 | Cc1c(Oc2ccccc2)cccc1N1C(=O)Nc2c(C(=O)N[C@@H]3CCCN(C(=O)/C(C#N)=C/C4CC4)C3)sc3nccc1c23 [Example 901, (R,E)-N-(1-(2-Cyano-3-cyclopropylacryloyl)piperidin-3-yl)-5-(2-methyl-3-phenoxyphenyl)-4-oxo-4,5-dihydro-3H-1-thia-3,5,8-triazaacenaphthylene-2-carboxamide] | 6.8 | –
3 | N#C/C(=C\C1CC1)C(=O)N1CCC[C@H](NC(=O)c2sc3nccc4c3c2NC(=O)N4c2ccc(C(=O)Nc3cc(C(F)(F)F)ccn3)cc2F)C1 [Example 902, (S,E)-N-(1-(2-Cyano-3-cyclopropylacryloyl)piperidin-3-yl)-5-(2-fluoro-4-((4-(trifluoromethyl)pyridin-2-yl)carbamoyl)phenyl)-4-oxo-4,5-dihydro-3H-1-thia-3,5,8-triazaacenaphthylene-2-carboxamide] | – | 6.8
4 | Cc1cc(Oc2ccccc2)ccc1N1C(=O)Nc2c(C(=O)N[C@H]3CCCN(C(=O)/C(C#N)=C/C(C)(C)C)C3)sc3nccc1c23 [Example 904, (S,E)-N-(1-(2-Cyano-4,4-dimethylpent-2-enoyl)piperidin-3-yl)-5-(2-methyl-4-phenoxyphenyl)-4-oxo-4,5-dihydro-3H-1-thia-3,5,8-triazaacenaphthylene-2-carboxamide] | – | 6.7
5 | Cc1cc(Oc2ccccc2)ccc1N1C(=O)Nc2c(C(=O)N[C@H]3CCN(C(=O)/C(C#N)=C/C4CC4)C3)sc3nccc1c23 [Example 905, (S,E)-N-(1-(2-Cyano-3-cyclopropylacryloyl)pyrrolidin-3-yl)-5-(2-methyl-4-phenoxyphenyl)-4-oxo-4,5-dihydro-3H-1-thia-3,5,8-triazaacenaphthylene-2-carboxamide] | – | 6.7
6 | COc1ccccc1Oc1ccc(N2C(=O)Nc3c(C(=O)NC4CCCN(C)C4)sc4nccc2c34)c(C)c1 (stereo not shown) [Example 907, 5-(4-(2-Methoxyphenoxy)-2-methylphenyl)-N-(1-methylpiperidin-3-yl)-4-oxo-4,5-dihydro-3H-1-thia-3,5,8-triazaacenaphthylene-2-carboxamide] | – | 6.7
7 | O=C(N[C@@H]1CCNC1)c1sc2nccc3c2c1NC(=O)N3c1ccc(Oc2ccccc2)cc1 [Example 911, (R)-4-Oxo-5-(4-phenoxyphenyl)-N-(pyrrolidin-3-yl)-4,5-dihydro-3H-1-thia-3,5,8-triazaacenaphthylene-2-carboxamide] | – | 6.6
8 | Cc1cc(Oc2ccccc2)ccc1N1C(=O)Nc2c(C(=O)N[C@H]3CCCNC3)sc3nccc1c23 [Example 912, (S)-5-(2-Methyl-4-phenoxyphenyl)-4-oxo-N-(piperidin-3-yl)-4,5-dihydro-3H-1-thia-3,5,8-triazaacenaphthylene-2-carboxamide] | – | 6.5
9 | Cc1cc(OC(C)C)ccc1N1C(=O)Nc2c(C(=O)N[C@@H]3CCCN(C(=O)/C=C/CN(C)C)C3)sc3nccc1c23 [Example 913, (R,E)-N-(1-(4-(Dimethylamino)but-2-enoyl)piperidin-3-yl)-5-(4-isopropoxy-2-methylphenyl)-4-oxo-4,5-dihydro-3H-1-thia-3,5,8-triazaacenaphthylene-2-carboxamide] | – | 6.5
10 | O=C(N[C@@H]1CCN(C(=O)c2ccccc2)C1)c1sc2nccc3c2c1NC(=O)N3c1ccc(Oc2ccccc2)cc1 [Example 914, (R)—N-(1-Benzoylpyrrolidin-3-yl)-4-oxo-5-(4-phenoxyphenyl)-4,5-dihydro-3H-1-thia-3,5,8-triazaacenaphthylene-2-carboxamide] | – | 6.5
11 | Cc1cc(Oc2ccccc2)ccc1N1C(=O)Nc2c(C(=O)NC3CCN(C(=O)/C(C#N)=C/C4CC4)CC3)sc3nccc1c23 [Example 916, (E)-N-(1-(2-Cyano-3-cyclopropylacryloyl)piperidin-4-yl)-5-(2-methyl-4-phenoxyphenyl)-4-oxo-4,5-dihydro-3H-1-thia-3,5,8-triazaacenaphthylene-2-carboxamide] | – | 6.4
12 | COc1ccccc1Oc1ccc(N2C(=O)Nc3c(C(=O)NC4CCNCC4)sc4nccc2c34)c(C)c1 [Example 917, 5-(4-(2-Methoxyphenoxy)-2-methylphenyl)-4-oxo-N-(piperidin-4-yl)-4,5-dihydro-3H-1-thia-3,5,8-triazaacenaphthylene-2-carboxamide] | – | 6.4
13 | COc1ccccc1Oc1ccc(N2C(=O)Nc3c(C(=O)NC4CCN(C)CC4)sc4nccc2c34)c(C)c1 [Example 918, 5-(4-(2-Methoxyphenoxy)-2-methylphenyl)-N-(1-methylpiperidin-4-yl)-4-oxo-4,5-dihydro-3H-1-thia-3,5,8-triazaacenaphthylene-2-carboxamide] | – | 6.4

Now from value to molecule:

Row | BTK_I_binding pIC50 [1] | BTK_I_binding pIC50 [2] | SMILES
14 | 6.8 | – | Cc1cc(Oc2ccccc2)ccc1N1C(=O)Nc2c(C(=O)N[C@H]3CCCN(C(=O)/C(C#N)=C/C4CC4)C3)sc3nccc1c23 [Example 899, (S,E)-N-(1-(2-Cyano-3-cyclopropylacryloyl)piperidin-3-yl)-5-(2-methyl-4-phenoxyphenyl)-4-oxo-4,5-dihydro-3H-1-thia-3,5,8-triazaacenaphthylene-2-carboxamide]
15 | – | 6.8 | CCC(=O)N1CCCC(NC(=O)c2sc3nccc4c3c2NC(=O)N4c2ccc(Oc3ccccc3)cc2C)C1 (stereo not shown) [Example 903, 5-(2-Methyl-4-phenoxyphenyl)-4-oxo-N-(1-propionylpiperidin-3-yl)-4,5-dihydro-3H-1-thia-3,5,8-triazaacenaphthylene-2-carboxamide]
16 | – | 6.7 | Cc1cc(Oc2ccccc2)ccc1N1C(=O)Nc2c(C(=O)N[C@@H]3CCCN(C(=O)CN4CCC4)C3)sc3nccc1c23 [Example 908, (R)—N-(1-(2-(Azetidin-1-yl)acetyl)piperidin-3-yl)-5-(2-methyl-4-phenoxyphenyl)-4-oxo-4,5-dihydro-3H-1-thia-3,5,8-triazaacenaphthylene-2-carboxamide]
17 | – | 6.7 | O=C(NC1CCOCC1)c1sc2nccc3c2c1NC(=O)N3c1ccc(Oc2ccccc2)cc1 [Example 909, 4-Oxo-5-(4-phenoxyphenyl)-N-(tetrahydro-2H-pyran-4-yl)-4,5-dihydro-3H-1-thia-3,5,8-triazaacenaphthylene-2-carboxamide]
18 | – | 6.7 | CN1CC[C@@H](NC(=O)c2sc3nccc4c3c2NC(=O)N4c2ccc(Oc3ccccc3)cc2)C1 [Example 910, (R)—N-(1-Methylpyrrolidin-3-yl)-4-oxo-5-(4-phenoxyphenyl)-4,5-dihydro-3H-1-thia-3,5,8-triazaacenaphthylene-2-carboxamide]
19 | – | 6.5 | O=C(N[C@@H]1CCCNC1)c1sc2nccc3c2c1NC(=O)N3c1ccc(Oc2ccccc2)cn1 [Example 915, (R)-4-Oxo-5-(5-phenoxypyridin-2-yl)-N-(piperidin-3-yl)-4,5-dihydro-3H-1-thia-3,5,8-triazaacenaphthylene-2-carboxamide]
